# Source: patent US7745636B2, “Hepatitis C virus inhibitors” (Bristol-Myers Squibb Company, priority 2006, dated 2010)
# pEC50: −log10 of the molar value.
# Test system: HCV 1b-377-neo replicon cells
# Test: HCV Replicon assay, HCV 1b-377-neo replicon cells
# Type: cell-based, HCV 1b genotype
# Conditions: Hepatitis C virus, Table 2, read-out: Range (EC50 against HCV 1b)
# Method: An HCV Replicon assay was utilized in the present disclosure, and was prepared, conducted and validated as described in commonly owned PCT/US2006/022197 and in O'Boyle et. al. Antimicrob Agents Chemother. 2005 April; 49(4):1346-53.
# HCV 1b-377-neo replicon cells were used to test the currently described compound series as well as cells resistant to compound A due to a Y2065H mutation in NS5A (described in application PCT/US2006/022197). The compounds tested were determined to have more than 10-fold less inhibitory activity on cells resistant to compound A than wild-type cells indicating a related mechanism of action between the two compound series. Thus, the compounds of the present disclosure can be effective to inhibit the function of the HCV NS5A protein and are understood to be as effective in combinations as previously described in application PCT/US2006/022197 and commonly owned WO/O4014852. Further, the compounds of the present disclosure can be effective against the HCV 1b genotype. It should also be understood that the compounds of the present disclosure can inhibit multiple genotypes of HCV. […] In one embodiment compounds of the present disclosure are active against the 1a, 1b, 2a, 2b, 3a, 4a, and 5a genotypes.
row,Structure (SMILES),pEC50
1,"C[C@@H](c1ncc(-c2ccc(-c3ccc(-c4cnc([C@H](C)N(C)C(=O)[C@@H](c5ccccc5)N5CCCCC5)[nH]4)cc3)cc2)[nH]1)N(C)C(=O)[C@@H](c1ccccc1)N1CCCCC1 [Example 24-18-3, (2R,2′R)-N,N′-(4,4′-biphenyldiylbis (1H-imidazol-5,2-diyl(1S)-1,1-ethanediyl))bis(N-methyl-2-phenyl-2-(1-piperidinyl)acetamide)]",9.00 to 12.00
2,"COC(=O)N[C@H](C(=O)N1CCC[C@H]1c1ncc(-c2ccc(-c3ccc(-c4cnc([C@@H]5CCCN5C(=O)[C@@H](NC(=O)OC)C(C)C)[nH]4)cc3CO)cc2)[nH]1)C(C)C [Example M119, methyl((1S)-1-(((2S)-2-(5-(2-(hydroxymethyl)-4′-(2-((2S)-1-((2S)-2-((methoxycarbonyl)amino)-3-methylbutanoyl)-2-pyrrolidinyl)-1H-imidazol-5-yl)-4-biphenylyl)-1H-imidazol-2-yl)-1-pyrrolidinyl)carbonyl)-2-methylpropyl)carbamate]",6.00 to 7.00
3,"CN(C)[C@@H](C(=O)N1CCC[C@H]1c1ncc(-c2ccc(-c3ccc(-c4cnc([C@@H]5CCCN5C(=O)[C@@H](c5ccccc5)N(C)C)[nH]4)nn3)nn2)[nH]1)c1ccccc1 [Example 153c-1, (1R,1′R)-2,2′-(3,3′-bipyridazine-6,6′-diylbis(1H-imidazole-5,2-diyl(2S)-2,1-pyrrolidinediyl))bis(N, N-dimethyl-2-oxo-1-phenylethanamine)]",7.00 to 9.00
4,"C[C@H](NC(=O)[C@@H](c1ccccc1)N(C)C)c1ncc(-c2ccc(-c3ccc(-c4cnc([C@@H]5CCCN5C(=O)[C@@H](c5ccccc5)N(C)C)[nH]4)cn3)cc2)[nH]1 [Example 152j-11, (2R)-2-(dimethylamino)-N-((1S)-1-(5-(4-(5-(2-((2S)-1-((2R)-2-(dimethylamino)-2-phenylacetyl)-2-pyrrolidinyl)-1H-imidazol-5-yl)-2-pyridinyl)phenyl)-1H-imidazol-2-yl)ethyl)-2-phenylacetamide]",9.00 to 12.00
5,"C[C@H](NC(=O)[C@@H](c1ccccc1)N(C)C)c1ncc(-c2ccc(-c3ccc(-c4cnc([C@@H]5CCCN5C(=O)[C@@H](c5ccccc5)N(C)C)[nH]4)nn3)cc2)[nH]1 [Example 152j-13, (2R)-2-(dimethylamino)-N-((1S)-1-(5-(4-(6-(2-((2S)-1-((2R)-2-(dimethylamino)-2-phenylacetyl)-2-pyrrolidinyl)-1H-imidazol-5-yl)-3-pyridazinyl)phenyl)-1H-imidazol-2-yl)ethyl)-2-phenylacetamide]",7.00 to 9.00
6,"COC(=O)N[C@@H](C(=O)N1CCC[C@H]1c1ncc(-c2ccc(-c3ccc(-c4cnc([C@@H]5CCCN5C(=O)[C@H](NC(=O)OC)c5ccccc5)[nH]4)cn3)nc2)[nH]1)c1ccccc1 [Example 145, dimethyl(2,2′-bipyridine-5,5′-diylbis(1H-imidazole-5,2-diyl(2S)-2,1-pyrrolidinediyl((1R)-2-oxo-1-phenyl-2,1-ethanediyl)))biscarbamate]",9.00 to 12.00
7,"COC(=O)N[C@@H](C)C(=O)N(C)[C@@H](C)c1ncc(-c2ccc(-c3ccc(-c4[nH]c([C@@H]5CCCN5C(=O)[C@H](C)NC(=O)OC)nc4C(F)(F)F)cc3)cc2)[nH]1 [Example J42.a, methyl ((1S)-2-((2S)-2-(5-(4′-(2-((1S)-1-((N-(methoxycarbonyl)-L-alanyl)(methyl)amino)ethyl)-1H-imidazol-5-yl)-4-biphenylyl)-4-(trifluoromethyl)-1H-imidazol-2-yl)-1-pyrrolidinyl)-1-methyl-2-oxoethyl)carbamate]",9.00 to 12.00
8,"COC(=O)N[C@@H](C(=O)N(C)[C@@H](C)c1ncc(-c2ccc(-c3ncc(-c4cnc([C@@H]5CCCN5C(=O)[C@@H](c5ccccc5)N5CCCCC5)[nH]4)cn3)cc2)[nH]1)c1ccccc1 [Example 152l-1, methyl ((1R)-2-(methyl((1S)-1-(4-(4-(5-(2-((2S)-1-((2R)-2-phenyl-2-(1-piperidinyl)acetyl)-2-pyrrolidinyl)-1H-imidazol-5-yl)-2-pyrimidinyl)phenyl)-1H-imidazol-2-yl)ethyl)amino)-2-oxo-1-phenylethyl)carbamate]",9.00 to 12.00
9,"COC(=O)N[C@@H](C(=O)N[C@@H](C)c1ncc(-c2ccc(-c3ncc(-c4cnc([C@@H]5CCCN5C(=O)[C@H](NC(=O)OC)c5ccccc5)[nH]4)cn3)cc2)[nH]1)c1ccccc1 [Example 152j-15, methyl ((1R)-2-((2S)-2-(5-(2-(4-(2-((1S)-1-(((2R)-2-((methoxycarbonyl)amino)-2-phenylace-tyl)amino)eth-yl)-1H-imidazol-5-yl)phenyl)-5-pyrimidinyl)-1H-imidazol-2-yl)-1-pyrrolidinyl)-2-oxo-1-phenylethyl)carbamate]",9.00 to 12.00
10,"C[C@@H](c1ncc(-c2ccc(-c3ccc(-c4cnc([C@H](C)N(C)C(=O)[C@@H](c5ccccc5)N(C)C)[nH]4)cc3)cc2)[nH]1)N(C)C(=O)[C@@H](c1ccccc1)N(C)C [Example 24-18-2, (2R,2′R)-N,N′-(4,4′-biphenyldiylbis (1H-imidazole-5,2-diyl(1S)-1,1-ethanediyl))bis(2-(dimethylamino)-N-methyl-2-phenylacetamide)]",9.00 to 12.00
11,"COC(=O)N[C@@H](C(=O)N1CCC[C@H]1c1ncc(-c2ccc(-c3ccc(-c4cnc([C@@H]5CCCN5C(=O)[C@H](NC(=O)OC)c5ccccc5)[nH]4)nc3)cc2)[nH]1)c1ccccc1 [Example 147, methyl((1R)-2-((2S)-2-(5-(5-(4-(2-((2S)-1-((2R)-2-((methoxycarbonyl)amino)-2-phenylacetyl)-2-pyrrolidinyl)-1H-imidazol-5-yl)phenyl)-2-pyridinyl)-1H-imidazol-2-yl)-1-pyrrolidinyl)-2-oxo-1-phenylethyl)carbamate]",9.00 to 12.00
12,"CCN(CC)[C@@H](C(=O)N1CCC[C@H]1c1ncc(-c2ccc(-c3ncc(-c4c[nH]c([C@@H]5CCCN5C(=O)[C@@H](NC(=O)OC)C(C)C)n4)cn3)cc2)[nH]1)c1ccccc1 [Example D76, methyl ((1S)-1-(((2S)-2-(5-(2-(4-(2-((2S)-1-((2R)-2-(diethylamino)-2-phenylacetyl)-2-pyrrolidinyl)-1H-imidazol-5-yl)phenyl)-5-pyrimidinyl)-1H-imidazol-2-yl)-1-pyrrolidinyl)carbonyl)-2-methylpropyl) carbamate]",9.00 to 12.00
13,"O=C([C@@H](c1ccccc1)N1CCCCC1)N1CCC[C@H]1c1ncc(-c2ccc(-c3ncc(-c4cnc([C@@H]5CCCN5C(=O)[C@@H](c5ccccc5)N5CCCCC5)[nH]4)cn3)cc2)[nH]1 [Example 152j-5, 5-(2-((2S)-1-((2R)-2-phenyl-2-(1-piperidinyl)acetyl)-2-pyrrolidinyl)-1H-imidazol-5-yl)-2-(4-(2-((2S)-1-((2R)-2-phenyl-2-(1-piperidinyl)acetyl)-2-pyrrolidinyl)-1H-imidazol-4-yl)phenyl)pyrimidine]",9.00 to 12.00
14,"COC(=O)N[C@@H](C(=O)N1CCC[C@H]1c1ncc(-c2ccc(-c3ccc(-c4cnc([C@@H]5CCCN5C(=O)[C@H]5CCCO5)[nH]4)cn3)cc2)[nH]1)c1ccccc1 [Example 141, methyl ((1R)-2-oxo-1-phenyl-2-((2S)-2-(5-(4-(5-(2-((2S)-1-((2R)-tetrahydro-2-furanylcarbonyl)-2-pyrrolidinyl)-1H-imidazol-5-yl)-2-pyridinyl)phenyl)-1H-imidazol-2-yl)-1-pyrrolidinyl)ethyl)carbamate]",9.00 to 12.00
15,"COC(=O)N[C@@H](C(=O)N1CCC[C@H]1c1ncc(-c2cnc(-c3cnc(-c4cnc([C@@H]5CCCN5C(=O)[C@H](NC(=O)OC)c5ccccc5)[nH]4)cn3)cn2)[nH]1)c1ccccc1 [Example 153c-6, dimethyl (2,2′-bipyrazine-5,5′-diylbis(1H-imidazole-5,2-diyl(2S)-2,1-pyrrolidinediyl((1R)-2-oxo-1-phenyl-2,1-ethanediyl))) biscarbamate]",7.00 to 9.00
16,"CN(C)[C@@H](C(=O)N1CCC[C@H]1c1ncc(-c2cnc(-c3ncc(-c4cnc([C@@H]5CCCN5C(=O)[C@@H](c5ccccc5)N(C)C)[nH]4)cn3)nc2)[nH]1)c1ccccc1 [Example 153c-3, (1R,1′R)-2,2′-(2,2′-bipyrimidine-5,5′-diylbis(1H-imidazole-5,2-diyl(2S)-2,1-pyrrolidinediyl))bis(N, N-dimethyl-2-oxo-1-phenylethanamine)]",5.00 to 6.00
17,"COC(=O)N[C@@H](C(=O)N1CCC[C@H]1c1ncc(-c2cnc(-c3ncc(-c4cnc([C@@H]5CCCN5C(=O)[C@H](NC(=O)OC)c5ccccc5)[nH]4)cn3)nc2)[nH]1)c1ccccc1 [Example 153c-4, dimethyl (2,2′-bipyrimidine-5,5′-diylbis(1H-imidazole-5,2-diyl(2S)-2,1-pyrrolidinediyl((1R)-2-oxo-1-phenyl-2,1-ethanediyl))) biscarbamate]",5.00 to 6.00

# Same assay, conditions: Table 2, read-out: Range (EC50 against HCV 1b)
row,Structure (SMILES),pEC50
1,COC(=O)NC(C(=O)NC(C)c1ncc(-c2ccc(-c3ccc(-c4cnc(C5CCCN5C(=O)C(NC(=O)OC)C(C)OC)[nH]4)cc3)cc2)[nH]1)C(C)OC (stereo not shown) [Example R27],9.00 to 12.00
2,C=CCCOC(=O)N[C@H](C(=O)N1CCC[C@H]1c1ncc(-c2ccc(-c3ccc(-c4cnc([C@@H]5CCCN5C(=O)[C@@H](NC(=O)OCCC=C)C(C)C)[nH]4)cc3)cc2)[nH]1)C(C)C [LS16],7.00 to 9.00
